{
  "source": "patent US8809001B2",
  "about": "“High throughput assays for inhibitors and activators of PAQR receptors” (University of Florida Research Foundation, Inc., priority 2007, dated 2014)",
  "format_in_all_cases": "cell-based",
  "key": {"[1]": {"biological_target": "T1, PAQR9 (Homo sapiens, UniProt Q6ZVX9)", "T1 construct": "expressed in transfected cells; host or cells: Saccharomyces cerevisiae BY4742, GAL1-driven pYES260 plasmid", "T1 sequence (Q6ZVX9 1-377)": "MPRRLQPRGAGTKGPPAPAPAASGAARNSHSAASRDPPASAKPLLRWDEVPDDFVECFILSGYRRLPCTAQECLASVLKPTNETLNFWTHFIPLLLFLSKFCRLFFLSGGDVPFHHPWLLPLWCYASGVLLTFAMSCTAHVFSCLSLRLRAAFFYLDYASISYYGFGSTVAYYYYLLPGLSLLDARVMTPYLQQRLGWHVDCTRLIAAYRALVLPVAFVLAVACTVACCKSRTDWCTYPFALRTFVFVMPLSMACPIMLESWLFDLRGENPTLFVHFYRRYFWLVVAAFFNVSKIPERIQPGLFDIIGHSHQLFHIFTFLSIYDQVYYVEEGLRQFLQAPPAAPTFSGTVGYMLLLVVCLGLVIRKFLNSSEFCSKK", "experiment": "FET3-lacZ reporter repression in yeast expressing PAQR9", "source_text": "(§1) Plasmids and primers. Human PAQRs were cloned into various vectors by PCR from commercially/publically available cDNAs. PAQRs were cloned into the pYES260 (Melcher, 2000), pRS316 (Liu et al., 1992) or pGREG536 (Jansen et al., 2005) expression vectors using gap repair. The pJK90 plasmid containing a Dual Topology Reporter (DTR)-tagged OST4 gene driven by the constitutive TPI1 promoter was kindly provided by Dr. Gunnar von Heijne (Stockholm University) (Kim et al., 2003). The OST4 open reading frame in pJK90 was replaced with the PAQR6 and mPRα open reading frames by gap repair. Primers for all cloning reactions are listed herein. Proteins expressed in pYES260 have an N-terminal 6×-histidine tag followed by a TEV protease cleavage site. Proteins expressed in pGREG536 have an N-terminal 7×-HA tag. Proteins expressed in the pRS316 vector are untagged. The pYES260, pRS316 and pGREG536 vectors allow for galactose-inducible expression via the GAL1 promoter. […] The FET3-lacZ plasmid was previously described (Kupchak et al., 2007). Plasmids derived from pADM4 carrying hyperactive alleles of Gpa1p (Gpa1p^Q323L) (Slessareva et al., 2006) and Gpa2p (Gpa2p^Q300L) (Harashima et al., 2002) driven by the ADH1 promoter were kindly provided by Dr. Henrik Dohlman (UNC Chapel Hill). A pRS316-based plasmid containing the STE2 gene under the control of the GAL1 promoter (Feng et al., 2000) was kindly provided by Dr. Nicholas G. Davis (Wayne State University).\nAssays and growth conditions. Strains were maintained using standard protocol and grown in synthetic defined (SD) media with the appropriate amino acids to match the auxotrophies of the individual strains. Low Iron Medium (LIM) contains EDTA to limit iron-bioavailability and its composition has been previously described (Kupchak et al., 2007). […] Cells were allowed to grow to mid-log phase at which time the activity of the FET3 gene was monitored using a FET3-lacZ promoter-reporter construct. lacZ activities are presented as a percentage of activity seen in untreated cells expressing the appropriate empty expression vector control. […]"}, "[2]": {"biological_target": "T2, mPRγ (Homo sapiens, UniProt Q9NXK6)", "T2 construct": "Full length and truncated mPRγ and mPRα were expressed in wild type cells grown in 2% galactose from the pGREG536 vector; expressed in transfected cells; host or cells: Saccharomyces cerevisiae (BY4742 wild type; also gpa mutants), GAL1-driven plasmids", "T2 sequence (Q9NXK6 1-330)": "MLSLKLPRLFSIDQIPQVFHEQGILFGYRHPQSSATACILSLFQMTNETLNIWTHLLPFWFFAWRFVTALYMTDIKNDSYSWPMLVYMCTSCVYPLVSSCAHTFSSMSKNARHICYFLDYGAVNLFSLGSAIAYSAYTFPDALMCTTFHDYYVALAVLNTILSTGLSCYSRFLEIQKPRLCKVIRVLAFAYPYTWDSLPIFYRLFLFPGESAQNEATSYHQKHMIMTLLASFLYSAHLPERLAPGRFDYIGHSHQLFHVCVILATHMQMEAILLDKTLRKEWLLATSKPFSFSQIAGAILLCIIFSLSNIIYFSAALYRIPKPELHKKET", "experiment": "FET3-lacZ reporter repression in yeast expressing mPRγ", "source_text": "as §1\nAssays and growth conditions. Strains were maintained using standard protocol and grown in synthetic defined (SD) media with the appropriate amino acids to match the auxotrophies of the individual strains. Low Iron Medium (LIM) contains EDTA to limit iron-bioavailability and its composition has been previously described (Kupchak et al., 2007). […] In brief, overnights of cells grown in SD-glucose media were re-inoculated into iron-deficient LIM to induce the expression of FET3. 2% galactose was used as a carbon source to induce full expression of PAQR genes driven by the GAL1 promoter, while 0.05% galactose/1.95% raffinose was used for reduced PAQR expression. All ligands were added to the growth medium upon re-inoculation into LIM. For experiments in which steroids were added as ligands, steroids were added from ethanol stocks and “untreated” controls are actually treated with an equal volume of ethanol to control for vehicle effects. Cells were allowed to grow to mid-log phase at which time the activity of the FET3 gene was monitored using a FET3-lacZ promoter-reporter construct. lacZ activities are presented as a percentage of activity seen in untreated cells expressing the appropriate empty expression vector control. For individual experiments, each data point has been done in triplicate and the error bars represent +/−1 standard deviation. All experiments were performed at least three times and a representative experiment is shown. EC50 values were obtained using the web-based BioDataFit software using sigmoidal curve-fitting. (web site changbioscience.com/stat/ec50.html)"}, "[3]": {"tested_on": "Class II PAQRs", "experiment": "FET3-lacZ response of the human PAQR panel to 10 μM progesterone: Class II", "source_text": "as §1, with “Plasmids derived from pADM4 carrying hyperactive alleles of Gpa1p (Gpa1p^Q323L) (Slessareva et al., 2006) and Gpa2p (Gpa2p^Q300L) (Harashima et al., 2002) driven by the ADH1 promoter were kindly provided by Dr. Henrik Dohlman (UNC Chapel Hill). A pRS316-based plasmid containing the STE2 gene under the control of the GAL1 promoter (Feng et al., 2000) was kindly provided by Dr. Nicholas G. Davis (Wayne State University).” left out\nAssays and growth conditions. […] Cells were allowed to grow to mid-log phase at which time the activity of the FET3 gene was monitored using a FET3-lacZ promoter-reporter construct. lacZ activities are presented as a percentage of activity seen in untreated cells expressing the appropriate empty expression vector control. […]"}},
  "note": "Values joined by “and” are separate entries in the source; they are usually repeats but may differ in a detail not shown here. Identical values can stand only once.",
  "data": [
    {"smiles": "CC(=O)[C@H]1CC[C@H]2[C@@H]3CCC4=CC(=O)CC[C@]4(C)[C@H]3CC[C@]12C", "note": "[Progesterone, progesterone]", "values": [
      {"measurement": "EC50", "setting": "[1]; PAQR9, Table 3", "value": 13.8, "unit": "nM"},
      {"measurement": "EC50 for progesterone activation of PAQR9 relative to the other four Class II receptors", "setting": "[1]; higher than the other four Class II receptors", "value": "approximately 10 fold"},
      {"measurement": "EC50", "setting": "[2]; mPRγ column of Table 4, ligand alone", "value": 1.1, "unit": "nM"},
      {"measurement": "EC50", "setting": "[2]; mPRγ, Table 3, iron deficient LIM, 0.05% galactose", "value": "1.3 nM and 1 to 3 nM"},
      {"measurement": "EC50", "setting": "[2]; mPRγ, progesterone in the presence of 100 nM RU-486", "value": 15.5, "unit": "nM"},
      {"measurement": "EC50", "setting": "[2]; mPRγ, progesterone in the presence of 10 μM testosterone", "value": 10.7, "unit": "nM"},
      {"measurement": "agonist effect on all five Class II PAQRs", "setting": "[3]", "value": "effective agonist"}
    ]}
  ]
}
